Data on 19 molecules can be found in PubChem BioAssay AID248 (DTP/NCI, 2004).

Molecules are shown by their SMILES. “And” between values parts separate entries of the source, which are not always exact repeats. Identical values can stand only once. Inconclusive results and toxic doses are left out.

The subject of the assay is L1210 leukemia ip in BDF1 mice, survival T/C. In words: NCI In Vivo Anticancer Drug Screen. Data for tumor model L1210 Leukemia (intraperitoneal) in B6D2F1 (BDF1) mice. The note with it: endpoint: mean survival time, higher = longer survival. The method, boiled down:
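Antitumor effect is assessed in tumor-bearing animals. Survival in the compound arm is compared with a vehicle-dosed control arm and expressed as their quotient.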

[1] abbreviates: dose: 100.0 mg/kg/injection, schedule: Q01DX001 (ip), vehicle: other.
Setting [2] is: dose: 200.0 mg/kg/injection, schedule: Q01DX001 (ip), vehicle: other.
[3] abbreviates: dose: 400.0 mg/kg/injection, schedule: Q01DX001 (ip), vehicle: other.
Where [4] appears, read: dose: 100.0 mg/kg/injection, schedule: Q01DX009 (ip), vehicle: saline.
Where [5] appears, read: dose: 200.0 mg/kg/injection, schedule: Q01DX009 (ip), vehicle: saline.
Setting [6] is: dose: 400.0 mg/kg/injection, schedule: Q01DX009 (ip), vehicle: saline.
Setting [7] is: dose: 100.0 mg/kg/injection, schedule: Q04DX003 (ip), vehicle: Klucel (hydroxypropylcellulose) (HPC).
Where [8] appears, read: dose: 200.0 mg/kg/injection, schedule: Q04DX003 (ip), vehicle: Klucel (hydroxypropylcellulose) (HPC).
Setting [9] is: dose: 400.0 mg/kg/injection, schedule: Q04DX003 (ip), vehicle: Klucel (hydroxypropylcellulose) (HPC).
Where [10] appears, read: dose: 100.0 mg/kg/injection, schedule: Q04DX002 (ip), vehicle: Klucel (hydroxypropylcellulose) (HPC).
Setting [11] is: dose: 200.0 mg/kg/injection, schedule: Q04DX002 (ip), vehicle: Klucel (hydroxypropylcellulose) (HPC).
Where [12] appears, read: dose: 400.0 mg/kg/injection, schedule: Q04DX002 (ip), vehicle: Klucel (hydroxypropylcellulose) (HPC).
[13] abbreviates: dose: 100.0 mg/kg/injection, schedule: Q01DX009 (ip), vehicle: Klucel (hydroxypropylcellulose) (HPC).
The mark [14] stands for this setting: dose: 200.0 mg/kg/injection, schedule: Q01DX009 (ip), vehicle: Klucel (hydroxypropylcellulose) (HPC).
The mark [15] stands for this setting: dose: 400.0 mg/kg/injection, schedule: Q01DX009 (ip), vehicle: Klucel (hydroxypropylcellulose) (HPC).
Where [16] appears, read: dose: 100.0 mg/kg/injection, schedule: Q04DX003 (ip), vehicle: saline.

For `c1nc(SC2=NCCN2)c2[nH]cnc2n1`, the T/C is, setting by setting: (dose: 2.62 mg/kg/injection, schedule: Q01DX Z (ip), vehicle: saline) 116 % of control; (dose: 5.0 mg/kg/injection, schedule: Q01DX001 (ip), vehicle: saline) 100 % of control; (dose: 5.25 mg/kg/injection, schedule: Q01DX Z (ip), vehicle: saline) 118 % of control; (dose: 5.25 mg/kg/injection, schedule: Q01DX Z (oral), vehicle: saline) 114 % of control; (dose: 10.0 mg/kg/injection, schedule: Q01DX001 (ip), vehicle: saline) 105 % of control; (dose: 10.5 mg/kg/injection, schedule: Q01DX Z (oral), vehicle: saline) 114 % of control. For the same molecule, the T/C was 115 % of control (dose: 12.5 mg/kg/injection, schedule: Q01DX009 (ip), vehicle: saline); 109 % of control (dose: 12.5 mg/kg/injection, schedule: Q04DX003 (ip), vehicle: saline); 103 % of control (dose: 20.0 mg/kg/injection, schedule: Q01DX001 (ip), vehicle: saline); 106 % of control (dose: 22.0 mg/kg/injection, schedule: Q04DX003 (ip), vehicle: saline); 118 % of control (dose: 25.0 mg/kg/injection, schedule: Q01DX009 (ip), vehicle: saline); 117 % of control (dose: 25.0 mg/kg/injection, schedule: Q04DX003 (ip), vehicle: saline). Moreover, the T/C by setting is: (dose: 33.0 mg/kg/injection, schedule: Q04DX003 (ip), vehicle: saline) 114 % of control and 116 % of control; (dose: 40.0 mg/kg/injection, schedule: Q01DX001 (ip), vehicle: saline) 108 % of control; (dose: 42.0 mg/kg/injection, schedule: Q01DX Z (ip), vehicle: saline) 156 % of control; (dose: 50.0 mg/kg/injection, schedule: Q01DX009 (ip), vehicle: saline) 150 % of control and 178 % of control; (dose: 50.0 mg/kg/injection, schedule: Q04DX003 (ip), vehicle: saline) 115 % of control and 118 % of control; (dose: 168.0 mg/kg/injection, schedule: Q01DX Z (oral), vehicle: saline) 87 % of control.
Take `COc1cc(/C=C/C=C/C(=O)N2CCCCC2)ccc1O`: the T/C was 88 % of control (dose: 100.0 mg/kg/injection, schedule: Q01DX009 (ip), vehicle: saline with Tween-80) and 92 % of control (dose: 200.0 mg/kg/injection, schedule: Q01DX009 (ip), vehicle: saline with Tween-80).
Turning to `O=C(CC(=O)c1ccc(Cl)cc1)NC(=O)c1ccccc1`, the T/C by setting is: under setting [1], 96 % of control; under setting [2], 91 % of control; under setting [3], 89 % of control.
For `N#Cc1[nH]cnc1N1CC[N+](CCCl)=N1`, the T/C is, setting by setting: under setting [4], 104 % of control; under setting [5], 103 % of control; under setting [6], 95 % of control.
Regarding `O=C1c2ccccc2C(=O)N1CCOc1ccc([N+](=O)[O-])cc1`, the T/C by setting is: (dose: 100.0 mg/kg/injection, schedule: Q01DX001 (ip), vehicle: gum acacia) 92 % of control; (dose: 200.0 mg/kg/injection, schedule: Q01DX001 (ip), vehicle: gum acacia) 99 % of control; (dose: 400.0 mg/kg/injection, schedule: Q01DX001 (ip), vehicle: gum acacia) 92 % of control.
Regarding `CC1(C)OC(=O)C2C3CCC(C2C(=O)O)C31` (stereo unspecified), the T/C under setting [7] was 100 % of control, the T/C under setting [8] was 96 % of control and the T/C under setting [9] is 100 % of control.
Take `C/C=C\C=N\NC(=O)C(=O)N/N=C/C=C\C`: the T/C is 97 % of control under setting [10], 91 % of control under setting [11] and 112 % of control under setting [12].
The like results for `Nc1c(Br)cc(I)cc1C(=O)O` were, in that order, 108 % of control, 93 % of control and 104 % of control.
Take `CCC(=O)C(CC)c1ccc(OC)cc1OC` (stereo unspecified): the T/C is 93 % of control under setting [13]; 103 % of control under setting [7]; 95 % of control under setting [14]; 101 % of control under setting [8]; 98 % of control under setting [15]; 103 % of control under setting [9].
On to `O=c1[nH]ccc2n[nH]nc12`, for which the T/C is 104 % of control under setting [1]; 96 % of control (dose: 100.0 mg/kg/injection, schedule: Q04DX003 (ip), vehicle: other); 101 % of control under setting [2]; 105 % of control (dose: 200.0 mg/kg/injection, schedule: Q04DX003 (ip), vehicle: other); 104 % of control under setting [3]; 102 % of control (dose: 400.0 mg/kg/injection, schedule: Q04DX003 (ip), vehicle: other).
In the case of `O=[N+]([O-])c1ccc(SNc2ccc(O)cc2)cc1[N+](=O)[O-]`, the T/C by setting is: under setting [13], 101 % of control; under setting [7], 94 % of control; under setting [14], 100 % of control; under setting [8], 100 % of control; under setting [15], 105 % of control; under setting [9], 95 % of control.
As for `O=C1C(=O)c2ccccc2C(O)=C1C(CCc1ccccc1)C1=C(O)c2ccccc2C(=O)C1=O`, the T/C by setting is: (dose: 75.0 mg/kg/injection, schedule: Q01DX001 (ip), vehicle: carboxymethylcellulose (CMC)) 106 % of control; (dose: 75.0 mg/kg/injection, schedule: Q01DX001 (ip), vehicle: saline) 96 % of control; (dose: 150.0 mg/kg/injection, schedule: Q01DX001 (ip), vehicle: saline) 94 % of control.
For the molecule `O=C(NC(Cc1ccccc1)C(=O)N1CCOCC1)c1ccccc1` (stereo unspecified), the T/C (dose: 100.0 mg/kg/injection, schedule: Q01DX001 (ip), vehicle: saline) was 91 % of control; the T/C (dose: 200.0 mg/kg/injection, schedule: Q01DX001 (ip), vehicle: saline) was 98 % of control; the T/C (dose: 400.0 mg/kg/injection, schedule: Q01DX001 (ip), vehicle: saline) is 89 % of control.
Consider `Nc1nc(N)nc(-c2ccc(-n3nnc4ccccc4c3=O)cc2)n1`, for which the T/C under setting [13] was 90 % of control; the T/C under setting [7] was 96 % of control; the T/C under setting [14] is 93 % of control; the T/C under setting [8] was 96 % of control; the T/C under setting [15] is 90 % of control; the T/C under setting [9] is 91 % of control.
As for `CCC(CC)N=C(N)N`, the T/C under setting [16] is 93 % of control.
Regarding `CCC(=O)NC1(C(=O)O)CCCc2ccccc21` (stereo unspecified), the T/C was 110 % of control under setting [7] and 96 % of control under setting [8].
For the molecule `FC(F)(F)C(F)(Cl)C(Cl)(Cl)C(F)(F)F` (stereo unspecified), the T/C under setting [4] is 97 % of control; the T/C under setting [16] was 100 % of control; the T/C under setting [5] was 97 % of control; the T/C (dose: 200.0 mg/kg/injection, schedule: Q04DX003 (ip), vehicle: saline) was 101 % of control; the T/C under setting [6] was 97 % of control; the T/C (dose: 400.0 mg/kg/injection, schedule: Q04DX003 (ip), vehicle: saline) is 90 % of control.
Take `c1ccc2c(CCc3ccncc3)cccc2c1`: the T/C under setting [13] is 103 % of control; the T/C under setting [7] was 101 % of control; the T/C under setting [14] was 100 % of control; the T/C under setting [8] is 103 % of control; the T/C under setting [15] was 97 % of control; the T/C under setting [9] is 100 % of control.
As to `CCCCCCCCCCCCCCCCCC(=O)N/N=C\c1c(O)ccc2ccccc12`, the T/C is, setting by setting: under setting [13], 93 % of control and 90 % of control; under setting [14], 88 % of control; under setting [15], 89 % of control.
